In patent US9896474B2, “(3A,9B,10A,13A,14B,17A,20S,22E)-ergosta-5,7,22-trien-3-ol and methods of preparing and using the same” (priority 2014, dated 2018):
Converted amounts (≈) assume the structure as drawn. “And” between values parts separate entries of the source, which are not always exact repeats. Identical values can stand only once.

Legend:
[1] = system: human hepatoma cells Hep-g2; assay: MTT assay on human hepatoma cells Hep-g2; format: cell-based; settings: HepG2, 48 hrs, OD 490 nm, read-out: 1050 value (cell viability curve)
Experimental: a. 250 mg of 3-(4,5-dimethylthiazol-2-yl)-2,5-diphenyltetrazolium bromide (MTT) was dissolved by 50 mL of phosphate buffered saline (PBS) having a concentration of 0.01 mol/L and PH=7.45 to yield a MTT solution having a final concentration of 5 mg/mL. The MTT solution was dispensed and protected against light at the temperature of −20° C. after filtration and sterilization.
b. A suspension of single cell line was prepared and inoculated into 96-well plate (cells were diluted to a concentration of 4×10^4/mL by the F-12K basic culture medium, 100 μL diluted cells were added to each well and cultivated at 37° C., 5% CO2 for 20 hrs, each group was provided with 4 parallel samples).
c. The culture medium was removed; and new culture mediums were prepared according to serial concentration of the antitumor drug (C310-6), each well was added with 100 μL of the new culture medium and cells were cultivated for 48 hrs.
d. 20 μL of MTT solution having the concentration of 5 mg/mL was added to each well for incubating the cells for 4 hrs.
e. […]
f. OD values were measured by a microplate reader, λ=490 nm
g. A cell viability curve was charted, 1050 value was calculated to be 14.152 μg/mL, which means that the compound has excellent human hepatoma cells Hep-g2 activity resistance.

[2] = system: human lung cancer cells A549; assay: MTT assay on human lung cancer cells A549; format: cell-based; settings: A549 section, 48 hrs, OD 490 nm, read-out: 1050 value (cell viability curve)
[3] = system: H22 liver cancer model; assay: Antitumor experiment against H22 tumor bearing mice; format: in vivo; settings: 10 days; for Net weight variation (g) / Tumor weight: x ± s
Text: Antitumor Experiment of C310-6 Against H22 Tumor Bearing Mice
H22 tumor bearing mice were adopted to observe the effect of the anti-liver cancer of five classes of mixtures.
H22 tumor bearing mouse inoculated with the tumor for 8-13 days and in good condition was killed by dislocation. Body surface of the mouse was disinfected by alcohol. The tumors were separated from the mouse and placed in sterile petri dish containing normal saline in a sterile environment (super clean bench). The tumors were cut into small piece and transferred to a tissue homogenizer, the normal saline was added with a volume ratio of the tumor piece to the normal saline being 1:3, a resulting homogenate was put into a 50 mL sterile centrifuge tube. 0.2 mL of the homogenate was inoculated to right axilla of each C57BL/6 mouse by 1 mL syringe. The tumor cell suspension was prepared in the sterile environment (the super clean bench), and the serial operations from separation of the abdominal dropsy of the tumor to the tumor inoculation were accomplished in 60 min
(§1) Oral agent of C310-6: a certain weight of C310-6 sample was placed in a mortar, and Tween-80 having a volume of 2% of a certain volume of a solvent was added and fully ground. Thereafter, the normal saline was added and fully stirred to form a solution. Solutions having a concentration of the C310-6 sample of 24 mg/mL, 8 mg/mL, and 2.7 mg/mL were prepared.
(§2) Oral agent of CTX: CTX pill was removed from a film and a certain amount of the pill was placed in a mortar. A certain volume of normal saline was added, fully ground, and mixed to prepare a solution having a concentration of CTX to be 3.4 mg/mL.
(§3) 60 experimental mice were divided into 6 groups with each group having 10 mice, a half of the mice being female and another half of the mice being male. The groups are specifically as follows: 1) group administered with a low dose of C310-6 (27 mg/kg), 2) group administered with middle dose of C310-6 (80 mg/kg), 3) group administered with high dose of C310-6 (240 mg/kg), 4) group administered with CTX, 5) model group, and 6) blank control group. The above groups, except the model group and the blank control group, are administered with 0.3 mL of the drugs once a day after the injection of the tumor suspension, and the administration was lasted for 10 days. The model group and the blank control group are administered orally with equal volume of aqua solutions containing 2 v. % of Tween-80 for 10 days.
(§4) The weight and food intake of the mice were weighed and recorded every day, and a net weight of each mouse after tumor removal was calculated at the last time.
(§5) The separated tumor tissue was weighed, and the inhibition rate on the tumor growth was calculated according to the following equation: […]
Data of mice in each group were expressed by and were processed by SPSS software, each group was examined by one-way ANOVA.

[4] = system: Lewis lung cancer model; assay: Anti-Lewis tumor experiment (Lewis lung cancer bearing mouse); format: in vivo; settings: Lewis mice, 10 days; for Net weight variation (g) / Tumor weight: x ± s
Text: The purpose of the experiment was adopting the Lewis tumor bearing mouse model to observe the antitumor effect of C310-6.
Tumor bearing mouse inoculated with the tumor for 8-13 days and in good condition was killed by dislocation. Body surface of the mouse was disinfected by alcohol. The tumors were separated from the mouse and placed in sterile petri dish containing normal saline in a sterile environment (super clean bench). The tumors were cut into small piece and transferred to a tissue homogenizer, the normal saline was added with a volume ratio of the tumor piece to the normal saline being 1:3, a resulting homogenate was put into a 50 mL sterile centrifuge tube. 0.2 mL of the homogenate was inoculated to right axilla of each KM mouse by 1 mL syringe. The tumor cell suspension was prepared in the sterile environment (the super clean bench), and the serial operations from the tumor separation to the tumor inoculation were accomplished in 60 min
as §1, §2
as §3, with “0.2” for “0.3”
as §4, §5
Data of mice in each group were expressed by corresponding data and were processed by SPSS software, each group was examined by one-way ANOVA.

[5] = system: human hepatoma cells Hep-g2; assay: iCELLigence real-time cell-analyzer (RTCA) growth monitoring, Hep-g2; format: cell-based; settings: 1.6-100 μg/mL, 48 hrs, FIG. 6
Experimental: 1. Eight-well plate (E-Plate L8) supplied by ACEA Bio (Hangzhou) Co. Ltd. was combined with an iCELLigence real-time cell-analyzer (RTCA). 150 μL of a complete F-12K medium was added to each well and the eight-well plate was placed in an incubator at a temperature of 37° C. and an atmosphere of 5% CO2, and the background data were regulated to 40-130. The compound C310-6 was fully dissolved by dimethyl sulfoxide to concentrations of 100 mg/mL, 50 mg/mL, 25 mg/mL, 12.5 mg/mL, 6.3 mg/mL, 3.1 mg/mL, and 1.6 mg/mL, and then diluted to by the complete F-12K medium obtain working solutions having concentrations of 10 mg/mL, 5 mg/mL, 2.5 mg/mL, 1.25 mg/mL, 0.63 mg/mL, 0.31 mg/mL, and 0.16 mg/mL. Well cultivated human hepatoma cells Hep-g2 were digested by trypsin and diluted into live cell suspensions with a concentration of 4×10^4/mL. Thereafter, 345 μL of the live cell suspension of C310-6 was inoculated to each well of an eight-well plate, and then 5 μL of the working solution was added to each well to enable final concentrations of the C310-6 compound to be 100 μg/mL, 50 μg/mL, 25 μg/mL, 12.5 μg/mL, 6.3 μg/mL, 3.1 μg/mL, and 1.6 μg/mL. An eighth hole was added with the complete F-12K medium containing 1 wt. % of dimethyl sulfoxide as a blank control group, and was displaced into the incubator at 37° C. and 5% CO2 for 48 hrs.

[6] = system: human lung cancer cells A549; assay: iCELLigence real-time cell-analyzer (RTCA) growth monitoring, A549; format: cell-based; settings: 1.6-100 μg/mL, 48 hrs, FIG. 7

In the case of `CC(C)[C@@H](C)/C=C/[C@H](C)[C@@H]1CC[C@@H]2C3=CC=C4C[C@H](O)CC[C@@]4(C)[C@@H]3CC[C@]21C` [C310-6, (3α,9β,10α,13α,14β,17α,20S,22E)-ergosta-5,7,22-trien-3-ol], the IC50 [1] is reported as 14.2 µg/mL (≈ 35.7 µM), the IC50 [2] is reported as 14.2 µg/mL (≈ 35.7 µM) and the “Liver transfer rate (%)” value ([3]; 27 mg/kg oral once a day) is reported as 0%. The “Survival rate (%)” value ([3]; 27 mg/kg oral once a day) was 100%, the “Tumor inhibition rate (%)” value ([3]; 27 mg/kg oral once a day) was 23.4% and the “Net weight variation (g)” value ([3]; 27 mg/kg oral once a day) was 6.92 ± 2.65∘∘ g. The “Tumor weight” value ([3]; 27 mg/kg oral once a day) was 0.42 ± 0.60 g, the “Liver transfer rate (%)” value ([3]; 80 mg/kg oral once a day) was 0% and the “Survival rate (%)” value ([3]; 80 mg/kg oral once a day) was 100%. The “Tumor inhibition rate (%)” value ([3]; 80 mg/kg oral once a day, 80 mg/kg) was > 40% and 41.1%, the “Net weight variation (g)” value ([3]; 80 mg/kg oral once a day) was 7.78 ± 3.72∘∘ g and the “Tumor weight” value ([3]; 80 mg/kg oral once a day) was 0.32 ± 0.43 g. The “Liver transfer rate (%)” value ([3]; 240 mg/kg oral once a day) was 0%, the “Survival rate (%)” value ([3]; 240 mg/kg oral once a day) was 100% and the “Tumor inhibition rate (%)” value ([3]; 240 mg/kg oral once a day, 240 mg/kg) was > 40% and 64.4%. For the same molecule, the “Net weight variation (g)” value ([3]; 240 mg/kg oral once a day, weight after tumor removal vs original) was 5.70 ± 4.05*※∘∘ g, the “Tumor weight” value ([3]; 240 mg/kg oral once a day) was 0.19 ± 0.18 g and the “Lung cancer transmission rate (%)” value ([4]; 27 mg/kg oral once a day) was 40%. For the same molecule, the “Survival rate (%)” value ([4]; 27 mg/kg oral once a day) was 100%, the “Tumor inhibition rate (%)” value ([4]; 27 mg/kg oral once a day) was 15.76% and the “Net weight variation (g)” value ([4]; 27 mg/kg oral once a day) was −0.36 ± 1.33**※※ g. For the same molecule, the “Tumor weight” value ([4]; 27 mg/kg oral once a day) was 1.42 ± 0.94 g, the “Lung cancer transmission rate (%)” value ([4]; 80 mg/kg oral once a day) was 50% and the “Survival rate (%)” value ([4]; 80 mg/kg oral once a day) was 100%. For the same molecule, the “Tumor inhibition rate (%)” value ([4]; 80 mg/kg oral once a day) was 28.39%, the “Net weight variation (g)” value ([4]; 80 mg/kg oral once a day) was −0.95 ± 1.30**※※ g and the “Tumor weight” value ([4]; 80 mg/kg oral once a day) was 1.21 ± 0.26 g. For the same molecule, the “Lung cancer transmission rate (%)” value ([4]; 240 mg/kg oral once a day) was 30%, the “Survival rate (%)” value ([4]; 240 mg/kg oral once a day) was 100% and the “Tumor inhibition rate (%)” value ([4]; 240 mg/kg oral once a day) was 44.59%. The “Net weight variation (g)” value ([4]; 240 mg/kg oral once a day) was −0.61 ± 1.36**※※ g, the “Tumor weight” value ([4]; 240 mg/kg oral once a day) was 0.93 ± 0.45 g and the “growth of human hepatoma cells Hep-g2 (real-time data)” value [5] was “inhibited”. For the same molecule, the “growth of human lung cancer cells A549 (real-time data)” value [6] was “inhibited”.

With `O=P1(N(CCCl)CCCl)NCCCO1` (centres unmarked) [CTX, cyclophosphamide, reference compound] the “Liver transfer rate (%)” value ([3]; 20 mg/kg oral once a day) was 0%, the “Survival rate (%)” value ([3]; 20 mg/kg oral once a day) was 100% and the “Tumor inhibition rate (%)” value ([3]; 20 mg/kg oral once a day) was 52.9%. The “Net weight variation (g)” value ([3]; 20 mg/kg oral once a day) was 1.73 ± 2.73**※※ g, the “Tumor weight” value ([3]; 20 mg/kg oral once a day) was 0.25 ± 0.21 g and the “Lung cancer transmission rate (%)” value ([4]; 20 mg/kg oral once a day) was 20%. The “Survival rate (%)” value ([4]; 20 mg/kg oral once a day) was 100%, the “Tumor inhibition rate (%)” value ([4]; 20 mg/kg oral once a day) was 46.29% and the “Net weight variation (g)” value ([4]; 20 mg/kg oral once a day) was −0.94 ± 1.03**※※ g. The “Tumor weight” value ([4]; 20 mg/kg oral once a day) was 0.90 ± 0.39 g.
